In one data set the target is CDK1/Cyclin B (Homo sapiens, UniProt P06493). Put plainly: CDK1/Cyclin B kinase assay (FlashPlate or HTRF). Format: biochemical. As to conditions: recombinant human CDK1/Cyclin B, Rb protein substrate; Ki=IC50/(1+[S]/Km). The method, then:
To determine inhibition of CDK1 activity, either FlashPlate™ (NEN™-Life Science Products) assay or HTRF assay was performed. Both types of kinase assays were carried out using recombinant human CDK1/Cyclin B complex. GST-cyclinB (GST-cycB) and CDK1 cDNA clones in baculovirus vectors were provided by Dr. W. Harper at the Baylor College of Medicine, Houston, Tex. Proteins were co-expressed in High Five™ insect cells and the complex was purified on glutathione Sepharose resin (Pharmacia, Piscataway, N.J.) as previously described (Harper, J. W. et al. Cell 1993, 75, 805-816). A 6x-Histidine tagged truncated form of retinoblastoma (Rb) protein (amino acid 386-928) was used as the substrate for the CDK1/Cyclin B assay (the expression plasmid was provided by Dr. Veronica Sullivan, Department of Molecular Virology, Roche Research Centre, Welwyn Garden City, United Kingdom). The Rb protein is a natural substrate for phosphorylation by CDK1 (see Herwig and Strauss Eur. J. Biochem. Vol. 246 (1997) pp. 581-601 and the references cited therein). The expression of the 62Kd protein was under the control of an IPTG inducible promoter in an M15 E. coli strain. Cells were lysed by sonication and purification was carried out by binding lysates at pH 8.0 to a Ni-chelated agarose column pretreated with 1 mM imidazole. The resin was then washed several times with incrementally decreasing pH buffers to pH 6.0, and eluted with 500 mM imidazole. Eluted protein was dialyzed against 20 mM HEPES pH 7.5, 30% glycerol, 200 mM NaCl, and 1 mM DTT. Purified Rb fusion protein stocks were quantitated for protein concentration, aliquoted, and stored at −70° C.
For the FlashPlate kinase assay, 96-well FlashPlates were coated with Rb protein at 10 μg/ml, using 100 μl per well. Plates were incubated at 4° C. overnight or at room temperature for 3 hours on a shaker. […] Plates were washed four times with the wash buffer, sealed, and counted on the TopCount scintillation counter (Packard Instrument Co., Downers Grove, Ill.]. The percent inhibition of Rb phosphorylation, which is a measure of the inhibition of CDK activity, was determined according to the following formula:
[formula] where “test compound” refers to the average counts per minute of the test duplicates, “nonspecific” refers to the average counts per minute when no CDK1/Cyclin B, etc., was added, and “total” refers to the average counts per minute when no compound was added. […] The value of the inhibitor constant Ki is calculated by the following: Ki=IC50/(1+[S]/Km), where [S] is the ATP concentration and Km is Michaelis constant.
The Homogeneous Time Resolved Fluorescence (HTRF) kinase assay was carried out in 96-well polypropylene plates (BD Biosciences, Bedford, Mass.). […]
For orientation: In TR-FRET formats the signal depends on donor and acceptor labels being close together.

Another data set concerns the target CDK2/Cyclin E (Homo sapiens, UniProt P24941). The data set can be described thus: CDK2/Cyclin E kinase assay (procedure as for CDK1/Cyclin B). Format: biochemical. Particulars: CDK2/Cyclin E complex, Rb protein substrate; Ki=IC50/(1+[S]/Km). Here is the method:
For the FlashPlate kinase assay, 96-well FlashPlates were coated with Rb protein at 10 μg/ml, using 100 μl per well. Plates were incubated at 4° C. overnight or at room temperature for 3 hours on a shaker. To control for nonspecific phosphorylation, one row of wells was coated with 100 μl/well coating buffer (20 mM HEPES, 0.2 M NaCl). Plates were then washed twice with wash buffer (0.01% Tween 20 in phosphate-buffered saline). Compounds to be tested (“test compounds”) were added to the wells at 5× final concentration. Reactions were initiated by immediate addition of 40 μl reaction mix (25 mM HEPES, 20 mM MgCl2, 0.002% Tween 20, 2 mM DTT, 1 μM ATP, 4 nM 33P-ATP) and a sufficient amount of enzyme to give counts that were at least 10-fold above background. Plates were incubated at room temperature on a shaker for 30 minutes. Plates were washed four times with the wash buffer, sealed, and counted on the TopCount scintillation counter (Packard Instrument Co., Downers Grove, Ill.]. The percent inhibition of Rb phosphorylation, which is a measure of the inhibition of CDK activity, was determined according to the following formula:
[formula] where “test compound” refers to the average counts per minute of the test duplicates, “nonspecific” refers to the average counts per minute when no CDK1/Cyclin B, etc., was added, and “total” refers to the average counts per minute when no compound was added. The IC50 value is the concentration of test compound that reduces by 50% the protein-kinase induced incorporation of the radiolabel under the test conditions described. The value of the inhibitor constant Ki is calculated by the following: Ki=IC50/(1+[S]/Km), where [S] is the ATP concentration and Km is Michaelis constant.
The Homogeneous Time Resolved Fluorescence (HTRF) kinase assay was carried out in 96-well polypropylene plates (BD Biosciences, Bedford, Mass.). Test compounds were first dissolved in DMSO, and then diluted in kinase assay buffer 1 (25 mM HEPES, pH7.0, 8 mM MgCl2, 1.5 mM DTT, and 162 μM ATP) with DMSO concentration at 15%. The CDK1/Cyclin B enzyme was diluted in kinase assay buffer 2 (25 mM HEPES, pH 7.0, 8 mM MgCl2, 0.003% Tween 20, 0.045% BSA, 1.5 mM DTT, and 0.675 μM Rb protein). To initiate the kinase reaction, 20 μL of compound solution was mixed with 40 μL of CDK1/Cyclin B solution in assay plates with final concentration of CDK1/Cyclin B and Rb at 0.1 μg/mL and […], respectively, and incubated at 37° C. for 30 min. […] At the completion of the incubation, 35 μL of reaction mixture was transferred to fresh 384-well black polystyrene plates (Corning Incorporated, Corning, N.Y.) and read on a fluorescent plate reader at excitation wavelength of 340 nm and emission wavelength of 665/615 nm. […]

pKi: −log10 of the molar value.

Sequence of CDK1/Cyclin B (P06493 whole entry, the tested form may be a part): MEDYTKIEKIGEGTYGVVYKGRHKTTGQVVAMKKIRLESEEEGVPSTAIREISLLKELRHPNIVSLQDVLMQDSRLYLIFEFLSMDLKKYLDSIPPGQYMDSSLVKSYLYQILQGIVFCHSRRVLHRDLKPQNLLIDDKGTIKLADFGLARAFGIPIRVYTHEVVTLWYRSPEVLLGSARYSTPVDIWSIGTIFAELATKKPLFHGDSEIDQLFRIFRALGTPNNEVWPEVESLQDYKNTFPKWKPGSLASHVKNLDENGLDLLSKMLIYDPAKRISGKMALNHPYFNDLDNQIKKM
Sequence of CDK1/Cyclin B (P14635 whole entry partner, the tested form may be a part): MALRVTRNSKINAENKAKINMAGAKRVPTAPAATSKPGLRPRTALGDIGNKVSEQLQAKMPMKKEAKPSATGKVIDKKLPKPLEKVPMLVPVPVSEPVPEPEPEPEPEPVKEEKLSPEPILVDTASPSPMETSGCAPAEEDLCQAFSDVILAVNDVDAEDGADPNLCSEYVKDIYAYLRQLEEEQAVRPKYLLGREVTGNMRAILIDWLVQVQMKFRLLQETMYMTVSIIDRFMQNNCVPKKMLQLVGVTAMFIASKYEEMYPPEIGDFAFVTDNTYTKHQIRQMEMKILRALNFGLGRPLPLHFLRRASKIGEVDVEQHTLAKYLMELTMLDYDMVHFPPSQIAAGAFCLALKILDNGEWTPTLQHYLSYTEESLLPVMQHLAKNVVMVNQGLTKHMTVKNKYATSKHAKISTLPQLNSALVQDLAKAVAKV

The melting point is the temperature of the solid-liquid transition. Regarding `O=C1N=C(NCc2cccs2)S/C1=C\c1c[nH]c2ncccc12` [Example 1, 5-[1-(1H-Pyrrolo[2,3-b]pyridin-3-yl)-meth-(Z)-ylidine]-2-[(thiophen-2-ylmethyl)-amino]-thiazol-4-one], the melting point was 243 to 246 °C. Still for that read-out and setting: as for `O=C1N=C(N[C@@H](CO)c2ccccc2)S/C1=C\c1c[nH]c2ncccc12` [Example 3, 2-(2-Hydroxy-1-(R)-phenyl-ethylamino)-5-[1-(1H-pyrrolo[2,3-b]pyridin-3-yl)-meth-(Z)-ylidine]-thiazol-4-one], the figure is 317 to 319 °C; as for `O=C1N=C(NCc2ccc(F)c(Cl)c2)S/C1=C\c1c[nH]c2ncccc12` [Example 4, 2-(3-Chloro-4-fluorobenzylamino)-5-[1-(1H-pyrrolo[2,3-b]pyridin-3-yl)-meth-(Z)-ylidine]-thiazol-4-one], 318 to 320 °C. As usually defined, the pKi is the Ki on a negative log10 scale, so that one unit is a factor of ten. Turning to `O=C1N=C(NC2C[C@@H]2c2ccccc2)S/C1=C\c1c[nH]c2ncccc12` (stereo partly drawn) [Example 5, 2-((1R,2S)-2-Phenyl-cyclopropylamino)-5-[1-(1H-pyrrolo[2,3-b]pyridin-3-yl)-meth-(Z)-ylidine]-thiazol-4-one], the melting point lay within 308 to 310 °C. For the same molecule, the pKi on CDK1/Cyclin B is 8.00. The molecule also showed a pKi at CDK2/Cyclin E of 7.77. `CC(C)[C@H](CO)NC1=NC(=O)/C(=C/c2c[nH]c3ncccc23)S1` [Example 6, 2-(1-(R)-Hydroxymethyl-2-methylpropylamino)-5-[1-(1H-pyrrolo[2,3-b]pyridin-3-yl)-meth-(Z)-ylidine]-thiazol-4-one] had a melting point of 269 to 271 °C. On the same count and under the same terms, with `CC(=O)OC[C@H](NC1=NC(=O)/C(=C/c2c[nH]c3ncccc23)S1)c1ccccc1` [Example 7, Acetic Acid 2-[4-oxo-5-(1H-pyrrolo[2,3,b]pyridine-3-ylmethylene)-4,5-dihydro-thiazol-2-ylamino]-2-(R)-phenyl-ethyl ester] the figure was 243.7 to 246.8 °C.

For the molecule `Cc1ccsc1CNC1=NC(=O)/C(=C/c2c[nH]c3ncccc23)S1` [Example 10, 2-[(3-Methyl-thiophen-2-ylmethyl)-amino)-5-[1-(1H-pyrrolo[2,3-b]pyridin-3-yl)-meth-(Z)-ylidine]-thiazol-4-one], the results for the pKi on CDK1/Cyclin B and at CDK2/Cyclin E were 7.32 and 7.74, respectively. For `NC1=NC(=O)/C(=C/c2c[nH]c3ncccc23)S1` [Example 15, 2-Amino-5-[1-(1H-pyrrolo[2,3-b]pyridin-3-yl)-meth-(Z)-ylidene]-thiazol-4-one], in that order: 6.08 and 6.60.

For the molecule `COc1ccccc1NC1=NC(=O)/C(=C/c2c[nH]c3ncccc23)S1` [Example 18, 2-(2-Methoxy-phenylamino)-5-[1-(1H-pyrrolo[2,3-b]pyridin-3-yl)-meth-(Z)-ylidene]-thiazol-4-one], the pKi on CDK1/Cyclin B was 5.94; at CDK2/Cyclin E, 6.73.

For the origin of these results see patent US7247727B2, “Azaindole thiazolinones” (Hoffmann-La Roche Inc., priority 2004, dated 2007).
